The values below come from ChEMBL document CHEMBL3046883, “Evaluation of insecticidal activity of diterpenes and lignans from Aristolochia malmeana against Anticarsia gemmatalis” (2008).

The test deals with Anticarsia gemmatalis. The test can be described thus: Insecticidal activity against Anticarsia gemmatalis (velvetbean caterpillar) third-instar larvae exposed to compound through topical dosing at mesothorax region assessed as induction of larval mortality. It counts as functional.

Active and inactive are the calls of the source. The rule behind the calls is not given here.

For the compound `C=C1C=C(C)[C@]2(C)CC[C@@H](C)[C@](C)(CC/C(C)=C/C(=O)O)[C@H]2C1`, the LD50 entry is “inactive”.

Regarding `O=C1OC[C@H](Cc2ccc3c(c2)OCO3)[C@H]1Cc1ccc2c(c1)OCO2`, the LD50 result was “inactive”.

Turning to `COc1ccc(C[C@H]2COC(=O)[C@@H]2Cc2ccc3c(c2)OCO3)cc1OC` [(-)-KUSUNOKININ], the LD10 was found to be 9.3 µg/µL, the LD50 turned out to be 230.1 µg/µL and the inhibition result is “Dose-dependent effect”.
